Source: US6589520B1, “Treatment of psoriasis, allergies and auto-immune disorders of the skin with cis-6-hexadecenoic acid” (Beiersdorf AG, priority 1997, dated 2003)
Counter-ions that a name gives are not always drawn.

Experiments:
macrophage = macrophage differentiation test; format: cell-based
From the text: This is of importance in the prophylaxis of processes such as, for example, psoriasis or atopy or allergies or auto-immune disorders.

solubility in water = format: physicochemical
Description: If salts are sparingly soluble in water, they can be administered in the form of suspensions. […] For example, salts are preferably injected intravenously or intramuscularly in the form of an aqueous solution, such as physiological saline solution. The ampoules contain, for example, 2.5 mg of the fatty acid salt per 5 ml of solution. Ampoules containing, for example, 45 mg of fatty acid salt per milliliter of solution can also be prepared.

| SMILES | anti-inflammatory macrophage-stimulating potency (macrophage) | solubility in water (solubility in water) |
| --- | --- | --- |
| CCCCCCCCC/C=C\CCCCC(=O)O [cis-6-hexadecenoic acid] | showed an anti-inflammatory macrophage-stimulating potency | – |
| CCCCCCC/C=C\CCCCCCCC(=O)O [sodium salt of cis-9-heptadecenoic acid, cis-9-heptadecenoic acid] | – | particularly good solubility in water |
